Experimental data taken from patent publication US20090005363A1, “Organic Compounds” (priority 2005, published 2009).

Target: mGluR5 (Homo sapiens, UniProt P41594)
Assay: inhibition of the glutamate induced elevation of intracellular Ca2+ concentration
Conditions: for inhibition at 10 µM: read-out: mGluR5 Activity inh. at 10 μM [%]; for mGluR5 Activity inh. at 10 μM [%]: inhibition of glutamate induced elevation of intracellular Ca2+ concentration at 10 μM
From the text: This can be determined in vitro for example at recombinant human metabotropic glutamate receptors, especially PLC-coupled subtypes thereof such as mGluR5, using different procedures like, for example, measurement of the inhibition of the agonist induced elevation of intracellular Ca^2+ concentration in accordance with L. P. Daggett et al., Neuropharm.

mGluR5, sequence (P41594 21-1180 isoform P41594-2 limits assumed): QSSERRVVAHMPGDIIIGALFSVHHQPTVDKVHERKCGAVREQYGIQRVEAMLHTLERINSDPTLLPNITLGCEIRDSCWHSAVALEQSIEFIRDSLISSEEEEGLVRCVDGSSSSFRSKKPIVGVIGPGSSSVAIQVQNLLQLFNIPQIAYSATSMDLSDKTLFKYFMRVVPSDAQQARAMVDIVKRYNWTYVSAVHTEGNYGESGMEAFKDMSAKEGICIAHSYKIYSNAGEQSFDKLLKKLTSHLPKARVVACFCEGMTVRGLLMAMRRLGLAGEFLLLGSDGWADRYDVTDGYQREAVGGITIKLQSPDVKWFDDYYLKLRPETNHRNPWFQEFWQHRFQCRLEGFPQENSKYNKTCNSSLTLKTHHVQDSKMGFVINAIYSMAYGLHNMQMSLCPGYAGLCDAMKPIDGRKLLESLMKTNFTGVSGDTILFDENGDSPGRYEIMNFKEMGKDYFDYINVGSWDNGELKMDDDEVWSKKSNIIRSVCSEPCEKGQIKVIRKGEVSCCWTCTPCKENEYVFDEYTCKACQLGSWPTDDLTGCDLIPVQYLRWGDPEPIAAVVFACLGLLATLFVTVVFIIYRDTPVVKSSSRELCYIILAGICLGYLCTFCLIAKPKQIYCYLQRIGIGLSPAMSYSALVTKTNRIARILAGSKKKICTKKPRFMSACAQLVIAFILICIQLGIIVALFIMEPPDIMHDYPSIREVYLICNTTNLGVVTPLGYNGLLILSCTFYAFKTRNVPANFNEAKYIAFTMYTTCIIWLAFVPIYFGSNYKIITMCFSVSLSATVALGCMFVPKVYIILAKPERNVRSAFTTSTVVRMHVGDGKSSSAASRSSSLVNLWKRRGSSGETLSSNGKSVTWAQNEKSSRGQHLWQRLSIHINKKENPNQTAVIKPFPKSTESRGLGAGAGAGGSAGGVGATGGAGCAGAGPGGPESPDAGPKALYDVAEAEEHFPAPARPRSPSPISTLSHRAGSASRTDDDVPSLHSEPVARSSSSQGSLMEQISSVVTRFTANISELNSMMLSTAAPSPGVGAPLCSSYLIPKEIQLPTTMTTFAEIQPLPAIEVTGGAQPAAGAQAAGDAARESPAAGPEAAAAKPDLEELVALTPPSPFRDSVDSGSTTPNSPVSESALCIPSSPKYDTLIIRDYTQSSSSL

| Structure (SMILES) | inhibition at 10 µM | mGluR5 Activity inh. at 10 μM [%] |
| --- | --- | --- |
| Cc1ccc(Nc2ncc(C(=O)N3CCSCC3)cc2Cl)cn1 [Compound 2.15, [5-Chloro-6-(6-methyl-pyridin-3-ylamino)-pyridin-3-yl]-thiomorpholin-4-yl-methanone] | 100% |  |
| Cc1ncc(Nc2ncc(C(=O)N3CCCC(C)C3)cc2Cl)cn1 (centres unmarked) [Compound 2.16, [5-Chloro-6-(2-methyl-pyrimidin-5-ylamino)-pyridin-3-yl]-(3-methyl-piperidin-1-yl)-methanone] | 97% |  |
| Cc1ncc(Nc2ncc(C(=O)N3CCCCC3)cc2Cl)cn1 [Compound 2.17, [5-Chloro-6-(2-methyl-pyrimidin-5-ylamino)-pyridin-3-yl]-piperidin-1-yl-methanone] | 97% |  |
| Cc1ncc(Nc2ncc(C(=O)N3CCCCCC3)cc2Cl)cn1 [Compound 2.18, Azepan-1-yl-[5-chloro-6-(2-methyl-pyrimidin-5-ylamino)-pyridin-3-yl]-methanone] | 100% |  |
| CC[C@@H]1CCCCN1C(=O)c1cnc(Nc2ccc(C(F)(F)F)nc2)c(Cl)c1 [Compound 2.23, [5-Chloro-6-(6-trifluoromethyl-pyridin-3-ylamino)-pyridin-3-yl]-((R)-2-ethyl-piperidin-1-yl)-methanone] | 100% |  |
| CC[C@@H]1CCCCN1C(=O)c1cnc(Nc2ccc(OC)nc2)c(Cl)c1 [Compound 2.24, [5-Chloro-6-(6-methoxy-pyridin-3-ylamino)-pyridin-3-yl]-((R)-2-ethyl-piperidin-1-yl)-methanone] | 97% |  |
| Cc1ccc(Oc2ncc(C(=O)N3CCCCC3)cc2Cl)cn1 [Compound 3.2, [5-Chloro-6-(6-methyl-pyridin-3-yloxy)-pyridin-3-yl]-piperidin-1-yl-methanone] | 97% |  |
| Cc1ccc(Oc2ncc(C(=O)N3CCCCCC3)cc2Cl)cn1 [Compound 3.3, Azepan-1-yl-[5-chloro-6-(6-methyl-pyridin-3-yloxy)-pyridin-3-yl]-methanone] | 90% |  |
| O=C(c1ccc(Nc2ccc(Cl)cc2)nc1)N1CC2CCC(CC2)C1 [Compound 4.9, (3-Aza-bicyclo[3.2.2]non-3-yl)-[6-(4-chloro-phenylamino)-pyridin-3-yl]-methanone] | 37% |  |
| O=C(c1ccc(Nc2ccc(Cl)cc2)nc1)N1C2CCC1CC(O)C2 (centres unmarked) [Compound 4.11, [6-(4-Chloro-phenylamino)-pyridin-3-yl]-(3-hydroxy-8-aza-bicyclo[3.2.1]oct-8-yl)-methanone] | 51% |  |
| Cc1ccc(Nc2ccc(C(=O)N3CCC[C@H](C)C3)cn2)cn1 [Compound 4.13a, (S-3-Methyl-piperidin-1-yl)-[6-(6-methyl-pyridin-3-ylamino)-pyridin-3-yl]-methanone] |  | 97% |
| Cc1ccc(Nc2ccc(C(=O)N3CCC[C@@H](C)C3)cn2)cn1 [Compound 4.13b, (R-3-Methyl-piperidin-1-yl)-[6-(6-methyl-pyridin-3-ylamino)-pyridin-3-yl]-methanone] | 96% |  |

The remaining lines, values ahead:

| inhibition at 10 µM | mGluR5 Activity inh. at 10 μM [%] | Structure (SMILES) |
| --- | --- | --- |
| 99% |  | Cc1ccc(Nc2ccc(C(=O)N3CCCCC3)cn2)cn1 [Compound 4.1, [6-(6-Methyl-pyridin-3-ylamino)-pyridin-3-yl]-piperidin-1-yl-methanone] |
| 97% |  | O=C(c1ccc(Nc2ccc(Cl)cc2)nc1)N1CCCCCC1 [Compound 4.2, Azepan-1-yl-[6-(4-chloro-phenylamino)-pyridin-3-yl]-methanone] |
| 92% |  | O=C(c1ccc(Nc2ccc(Cl)cc2)nc1)N1CCCC(F)(F)C1 [Compound 4.3, [6-(4-Chloro-phenylamino)-pyridin-3-yl]-(3,3-difluoro-piperidin-1-yl)-methanone] |
| 98% |  | CC1CCN(C(=O)c2ccc(Nc3ccc(Cl)cc3)nc2)CC1 [Compound 4.4, [6-(4-Chloro-phenylamino)-pyridin-3-yl]-(4-methyl-piperidin-1-yl)-methanone] |
| 88% |  | CC1CC(C)CN(C(=O)c2ccc(Nc3ccc(Cl)cc3)nc2)C1 (centres unmarked) [Compound 4.5, [6-(4-Chloro-phenylamino)-pyridin-3-yl]-(3,5-dimethyl-piperidin-1-yl)-methanone] |
| 94% |  | O=C(c1ccc(Nc2ccc(Cl)cc2)nc1)N1CCCC2CCCCC21 (centres unmarked) [Compound 4.8, [6-(4-Chloro-phenylamino)-pyridin-3-yl]-(octahydro-quinolin-1-yl)-meth anone] |
| 98% |  | Cc1ccc(Nc2ccc(C(=O)N3CCCCCC3)cn2)cn1 [Compound 4.15, Azepan-1-yl-[6-(6-methyl-pyridin-3-ylamino)-pyridin-3-yl]-methanone] |
| 81% |  | Cc1ccc(Nc2ccc(C(=O)N3CCCCCCC3)cn2)cn1 [Compound 4.16, Azocan-1-yl-[6-(6-methyl-pyridin-3-ylamino)-pyridin-3-yl]-methanone] |
| 98% |  | CCC1CCCCN1C(=O)c1cnc(Nc2ccc(C)nc2)c(Cl)c1 (centres unmarked) [Compound 4.17, [5-Chloro-6-(6-methyl-pyridin-3-ylamino)-pyridin-3-yl]-(2-ethyl-piperidin-1-yl)-methanone] |
| 97% |  | CC[C@@H]1CCCCN1C(=O)c1cnc(Nc2ccc(C)nc2)c(Cl)c1 [Compound 4.18, [5-Chloro-6-(6-methyl-pyridin-3-ylamino)-pyridin-3-yl]-((R)-2-ethyl-piperidin-1-yl)-methanone] |
| 97% |  | CC[C@H]1CCCCN1C(=O)c1cnc(Nc2ccc(C)nc2)c(Cl)c1 [Compound 4.19, [5-Chloro-6-(6-methyl-pyridin-3-ylamino)-pyridin-3-yl]-((S)-2-ethyl-piperidin-1-yl)-methanone] |
| 100% |  | Cc1ccc(Nc2ncc(C(=O)N3CCCC(C)C3C)cc2Cl)cn1 (centres unmarked) [Compound 4.20, [5-Chloro-6-(6-methyl-pyridin-3-ylamino)-pyridin-3-yl]-(2,3-dimethyl-piperidin-1-yl)-methanone] |
| 99% |  | Cc1ccc(Nc2ncc(C(=O)N3CCC[C@H](C)[C@@H]3C)cc2Cl)cn1 [Compound 4.21, [5-Chloro-6-(6-methyl-pyridin-3-ylamino)-pyridin-3-yl]-((2S,3S)-2,3-dimethyl-piperidin-1-yl)-methanone] |
| 98% |  | Cc1ccc(Nc2ncc(C(=O)N3CCC[C@@H](C)[C@H]3C)cc2Cl)cn1 [Compound 4.22, [5-Chloro-6-(6-methyl-pyridin-3-ylamino)-pyridin-3-yl]-((2R,3R)-2,3-dimethyl-piperidin-1-yl)-methanone] |
| 95% |  | Cc1ccc(Nc2ncc(C(=O)N3CCCC[C@@H]3C)cc2Cl)cn1 [Compound 4.23, [5-Chloro-6-(6-methyl-pyridin-3-ylamino)-pyridin-3-yl]-((S)-2-methyl-piperidin-1-yl)-methanone] |
| 92% |  | Cc1ccc(Nc2ncc(C(=O)N3CCCC[C@H]3C)cc2Cl)cn1 [Compound 4.24, [5-Chloro-6-(6-methyl-pyridin-3-ylamino)-pyridin-3-yl]-((R)-2-methyl-piperidin-1-yl)-methanone] |
|  | 98% | Cc1ccc(Nc2ncc(C(=O)N3CCCC4CCCC43)cc2Cl)cn1 (centres unmarked) [Compound 4.25, [5-Chloro-6-(6-methyl-pyridin-3-ylamino)-pyridin-3-yl]-(octahydro-[1]pyridin-1-yl)-methanone] |
